Columns and labels:
[1] = target: C-C chemokine receptor type 2 (Homo sapiens, UniProt P41597); format: cell membranes, CHO-K1, Membrane; details: cho-k1; further: in other assays of this panel Not Active means under 50% inhibition at 10 µM
Cathepsin G = target: T1, Cathepsin G (Homo sapiens, UniProt P08311); format: tissue-based; details: neutrophil;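 further: inhibition of Cathepsin G enzyme activity, tested on an AMC-conjugated peptide substrate; in other assays of this panel Not Active means under 50% inhibition at 10 µM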
T1 sequence (P08311 whole entry): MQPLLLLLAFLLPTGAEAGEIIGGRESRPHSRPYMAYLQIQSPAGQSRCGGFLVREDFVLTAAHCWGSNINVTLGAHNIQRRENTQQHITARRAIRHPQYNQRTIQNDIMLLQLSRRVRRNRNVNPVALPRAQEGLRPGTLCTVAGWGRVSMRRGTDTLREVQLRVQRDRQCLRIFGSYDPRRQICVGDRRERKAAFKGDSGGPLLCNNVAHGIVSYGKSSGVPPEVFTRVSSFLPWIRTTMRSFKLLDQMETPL

[2] = target: T2, Receptor-type tyrosine-protein phosphatase C (Homo sapiens, UniProt P08575); set-up: species or system Escherichia coli;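 further: inhibition of CD45 enzyme activity measured using DiFMUP as substrate; in other assays of this panel Not Active means under 50% inhibition at 10 µM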
T2 sequence (P08575 whole entry): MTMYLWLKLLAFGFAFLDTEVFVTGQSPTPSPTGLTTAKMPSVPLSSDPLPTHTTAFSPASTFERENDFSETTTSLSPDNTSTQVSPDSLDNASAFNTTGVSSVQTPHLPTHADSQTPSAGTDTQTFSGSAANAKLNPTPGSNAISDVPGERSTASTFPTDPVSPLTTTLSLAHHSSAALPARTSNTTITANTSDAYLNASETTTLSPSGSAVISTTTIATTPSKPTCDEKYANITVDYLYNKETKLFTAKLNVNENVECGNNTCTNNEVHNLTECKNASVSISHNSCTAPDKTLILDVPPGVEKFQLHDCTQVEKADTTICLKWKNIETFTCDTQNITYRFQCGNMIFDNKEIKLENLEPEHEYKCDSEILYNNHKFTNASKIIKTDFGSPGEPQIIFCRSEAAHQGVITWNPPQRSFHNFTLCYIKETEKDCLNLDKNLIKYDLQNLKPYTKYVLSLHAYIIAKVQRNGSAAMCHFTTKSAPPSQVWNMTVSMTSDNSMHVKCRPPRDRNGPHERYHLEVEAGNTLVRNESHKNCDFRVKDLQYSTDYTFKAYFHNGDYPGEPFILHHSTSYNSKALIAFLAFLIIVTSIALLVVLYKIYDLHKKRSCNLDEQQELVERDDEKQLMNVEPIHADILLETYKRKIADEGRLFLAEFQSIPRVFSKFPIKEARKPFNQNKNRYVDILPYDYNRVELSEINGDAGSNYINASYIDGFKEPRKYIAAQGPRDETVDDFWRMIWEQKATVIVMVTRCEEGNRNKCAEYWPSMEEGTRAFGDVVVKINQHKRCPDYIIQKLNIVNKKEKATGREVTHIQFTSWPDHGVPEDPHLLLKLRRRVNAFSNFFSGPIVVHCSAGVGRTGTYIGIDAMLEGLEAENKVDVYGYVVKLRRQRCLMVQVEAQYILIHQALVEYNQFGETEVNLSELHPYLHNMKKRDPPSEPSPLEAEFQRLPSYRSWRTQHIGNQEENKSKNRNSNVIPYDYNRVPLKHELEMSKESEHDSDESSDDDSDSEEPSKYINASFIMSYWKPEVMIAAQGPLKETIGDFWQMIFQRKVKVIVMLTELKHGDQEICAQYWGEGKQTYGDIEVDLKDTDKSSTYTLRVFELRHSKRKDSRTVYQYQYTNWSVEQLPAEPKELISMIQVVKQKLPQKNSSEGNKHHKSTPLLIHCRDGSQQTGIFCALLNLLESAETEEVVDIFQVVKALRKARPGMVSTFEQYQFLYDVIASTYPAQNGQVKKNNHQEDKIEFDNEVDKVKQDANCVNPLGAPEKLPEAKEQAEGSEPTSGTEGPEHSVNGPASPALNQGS

[3] = DRUGMATRIX: GABAA, Muscimol, Central radioligand binding (ligand: [3H] Muscimol); format: cell membranes, Rattus norvegicus, Wistar, Brain, Membrane; details: Not Active = under 50% inhibition at 10 µM
D(3) dopamine receptor = D(3) dopamine receptor (Homo sapiens, UniProt P35462); experiment: DRUGMATRIX: Dopamine D3 radioligand binding (ligand: [3H] Spiperone); format: cell membranes, CHO, Membrane; details: cho
Sequence of D(3) dopamine receptor (P35462 whole entry): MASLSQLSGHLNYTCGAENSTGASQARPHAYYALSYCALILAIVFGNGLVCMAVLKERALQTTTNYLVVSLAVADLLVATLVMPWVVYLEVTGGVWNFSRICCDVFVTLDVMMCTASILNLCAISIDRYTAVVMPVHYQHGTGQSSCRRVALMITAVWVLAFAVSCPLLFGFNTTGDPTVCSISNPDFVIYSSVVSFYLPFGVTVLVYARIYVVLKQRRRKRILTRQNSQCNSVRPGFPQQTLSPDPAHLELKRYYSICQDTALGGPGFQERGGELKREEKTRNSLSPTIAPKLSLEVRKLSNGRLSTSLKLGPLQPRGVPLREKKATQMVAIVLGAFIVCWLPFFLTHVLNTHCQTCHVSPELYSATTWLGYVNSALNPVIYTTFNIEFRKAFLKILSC

D(4) dopamine receptor = target: T3, D(4) dopamine receptor (Homo sapiens, UniProt P21917); experiment: DRUGMATRIX: Dopamine D4.2 radioligand binding (ligand: [3H] Spiperone); format: cell membranes, CHO-K1, Membrane; details: cho-k1; Not Active = under 50% inhibition at 10 µM
T3 sequence (P21917 whole entry): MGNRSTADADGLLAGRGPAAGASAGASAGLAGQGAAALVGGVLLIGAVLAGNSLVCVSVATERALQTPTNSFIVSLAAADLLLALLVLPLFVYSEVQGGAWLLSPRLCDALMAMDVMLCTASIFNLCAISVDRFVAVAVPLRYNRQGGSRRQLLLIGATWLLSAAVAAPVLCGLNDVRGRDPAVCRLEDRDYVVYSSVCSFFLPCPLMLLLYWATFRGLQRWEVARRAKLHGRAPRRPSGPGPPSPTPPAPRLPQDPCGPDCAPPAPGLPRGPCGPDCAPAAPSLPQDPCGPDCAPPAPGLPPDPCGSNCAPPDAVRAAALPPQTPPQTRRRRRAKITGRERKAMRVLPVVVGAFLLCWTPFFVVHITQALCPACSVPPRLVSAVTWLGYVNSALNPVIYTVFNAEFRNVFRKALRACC

Caspase-1 = target: T4, Caspase-1 (Homo sapiens, UniProt P29466); set-up: species or system Escherichia coli;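 further: Caspase-1 enzyme inhibition assay with a peptide substrate; in other assays of this panel Not Active means under 50% inhibition at 10 µM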
T4 sequence (P29466 whole entry): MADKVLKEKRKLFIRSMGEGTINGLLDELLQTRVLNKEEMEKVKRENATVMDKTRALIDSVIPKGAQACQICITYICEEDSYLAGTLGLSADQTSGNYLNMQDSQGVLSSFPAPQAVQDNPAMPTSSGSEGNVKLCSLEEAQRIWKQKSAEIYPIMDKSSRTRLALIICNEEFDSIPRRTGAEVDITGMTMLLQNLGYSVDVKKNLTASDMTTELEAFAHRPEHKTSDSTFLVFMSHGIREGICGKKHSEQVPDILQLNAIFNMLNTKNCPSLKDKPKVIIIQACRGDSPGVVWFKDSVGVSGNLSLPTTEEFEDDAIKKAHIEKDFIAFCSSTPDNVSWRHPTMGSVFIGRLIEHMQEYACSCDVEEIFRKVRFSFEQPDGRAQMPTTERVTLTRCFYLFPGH

[4] = target: Mitogen-activated protein kinase 14 (Homo sapiens, UniProt Q16539); set-up: species or system Escherichia coli
Sequence of Mitogen-activated protein kinase 14 (Q16539 whole entry): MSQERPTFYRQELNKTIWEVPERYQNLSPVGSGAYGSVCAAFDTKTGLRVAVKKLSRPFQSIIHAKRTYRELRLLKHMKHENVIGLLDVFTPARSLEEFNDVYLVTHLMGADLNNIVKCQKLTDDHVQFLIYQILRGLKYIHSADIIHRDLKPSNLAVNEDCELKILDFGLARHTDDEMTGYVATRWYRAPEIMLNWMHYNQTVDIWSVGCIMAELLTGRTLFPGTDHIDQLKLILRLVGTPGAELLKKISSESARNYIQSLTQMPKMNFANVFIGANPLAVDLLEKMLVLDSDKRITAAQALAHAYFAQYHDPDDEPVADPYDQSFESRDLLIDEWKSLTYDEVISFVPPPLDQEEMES

Acetylcholinesterase = Acetylcholinesterase (Homo sapiens, UniProt P22303); experiment: DRUGMATRIX: Acetylcholinesterase enzyme inhibition (substrate: acetylthiocholine); format: cell-based, HEK293; details: Not Active = under 50% inhibition at 10 µM
Sequence of Acetylcholinesterase (P22303 whole entry): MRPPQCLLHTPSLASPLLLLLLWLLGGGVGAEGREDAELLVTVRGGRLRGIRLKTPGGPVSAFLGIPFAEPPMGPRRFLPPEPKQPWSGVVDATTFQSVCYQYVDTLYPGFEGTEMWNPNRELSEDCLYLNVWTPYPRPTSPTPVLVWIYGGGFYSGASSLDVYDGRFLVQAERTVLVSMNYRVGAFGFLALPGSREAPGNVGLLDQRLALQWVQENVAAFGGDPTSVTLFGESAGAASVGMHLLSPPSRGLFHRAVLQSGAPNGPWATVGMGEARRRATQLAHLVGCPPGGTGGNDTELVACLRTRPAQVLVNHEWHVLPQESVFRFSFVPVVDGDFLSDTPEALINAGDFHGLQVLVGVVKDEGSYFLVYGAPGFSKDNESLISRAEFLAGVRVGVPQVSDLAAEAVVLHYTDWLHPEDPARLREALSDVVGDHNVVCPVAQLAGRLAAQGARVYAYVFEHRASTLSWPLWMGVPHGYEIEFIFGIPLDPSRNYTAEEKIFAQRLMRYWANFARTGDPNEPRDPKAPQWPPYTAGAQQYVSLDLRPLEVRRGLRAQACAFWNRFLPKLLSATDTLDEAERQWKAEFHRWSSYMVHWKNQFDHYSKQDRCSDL

Sequence of C-C chemokine receptor type 2 (P41597 whole entry): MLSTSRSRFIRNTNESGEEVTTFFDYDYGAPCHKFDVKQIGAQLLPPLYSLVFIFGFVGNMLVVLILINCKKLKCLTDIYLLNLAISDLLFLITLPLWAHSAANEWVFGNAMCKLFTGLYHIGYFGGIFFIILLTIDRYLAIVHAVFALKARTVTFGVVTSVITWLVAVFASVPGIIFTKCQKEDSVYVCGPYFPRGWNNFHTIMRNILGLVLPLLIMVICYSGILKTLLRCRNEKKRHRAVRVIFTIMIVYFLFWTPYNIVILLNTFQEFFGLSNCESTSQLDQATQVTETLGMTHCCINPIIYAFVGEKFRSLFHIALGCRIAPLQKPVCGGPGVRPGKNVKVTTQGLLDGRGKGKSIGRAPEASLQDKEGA

| Compound | IC50 [1] | IC50 (Cathepsin G) | IC50 [2] | IC50 [3] | Ki [3] | IC50 (D(3) dopamine receptor) | IC50 (D(4) dopamine receptor) | IC50 (Caspase-1) | IC50 [4] | IC50 (Acetylcholinesterase; hek293) | other results |
| --- | --- | --- | --- | --- | --- | --- | --- | --- | --- | --- | --- |
| CC(C)n1c(/C=C/C(O)CC(O)CC(=O)O)c(-c2ccc(F)cc2)c2ccccc21 (stereo unspecified) [FLUVASTATIN] | Not Active | Not Active | Not Active | Not Active | Not Active | Not Active | Not Active | Not Active | Not Active | Not Active | – |
| CN(C)[C@@H]1C(O)=C(C(N)=O)C(=O)[C@@]2(O)C(O)=C3C(=O)c4c(O)cccc4[C@@](C)(O)[C@H]3[C@H](O)[C@@H]12 [OXYTETRACYCLINE] | Not Active | Not Active | Not Active | Not Active | Not Active | Not Active | Not Active | Not Active | Not Active | Not Active | – |
| O=C1CN=C(c2ccccc2)c2cc([N+](=O)[O-])ccc2N1 [NITRAZEPAM] | Not Active | Not Active | Not Active | Not Active | Not Active | Not Active | Not Active | Not Active | Not Active | Not Active | – |
| CC(=O)CCCCn1c(=O)c2c(ncn2C)n(C)c1=O [PENTOXIFYLLINE] | Not Active | Not Active | Not Active | Not Active | Not Active | Not Active | Not Active | Not Active | Not Active | Not Active | – |
| C=C1C(=O)O[C@@H]2C3O[C@]3(C)CC/C=C(\C)CC[C@@H]12 (stereo partly specified) | Not Active | Not Active | Not Active | Not Active | Not Active | Not Active | Not Active | Not Active | Not Active | Not Active | – |
| C=C(C)[C@@H]1[C@H]2OC(=O)[C@@H]1[C@]1(O)C[C@H]3O[C@]34C(=O)O[C@H]2[C@]14C [PICROTOXININ] | Not Active | Not Active | Not Active | Not Active | Not Active | Not Active | Not Active | Not Active | Not Active | Not Active | – |
| CARBOPLATIN | Not Active | Not Active | Not Active | Not Active | Not Active | Not Active | Not Active | Not Active | Not Active | Not Active | Ki [1]: Not Active; Ki (Cathepsin G): Not Active; Ki [2]: Not Active; Ki (D(3) dopamine receptor): Not Active; Ki (D(4) dopamine receptor): Not Active; Ki (Caspase-1): Not Active; Ki [4]: Not Active; Ki (Acetylcholinesterase; hek293): Not Active |
| c1ccc2c(c1)cc1ccc3cccc4ccc2c1c34 | Not Active | Not Active | Not Active | Not Active | Not Active | Not Active | Not Active | Not Active | Not Active | – | IC50 (Acetylcholinesterase; read-out: IC50): 28 µM |
| CCCCOC(=O)c1ccc(N)cc1 [BUTAMBEN] | Not Active | Not Active | Not Active | Not Active | Not Active | Not Active | Not Active | Not Active | Not Active | Not Active | – |
| Cc1ccccc1N1CCN(CCc2nnc3n2CCCC3)CC1 [DAPIPRAZOLE] | Not Active | Not Active | Not Active | Not Active | Not Active | Not Active | Not Active | Not Active | Not Active | Not Active | – |
| CC[C@@]1(O)C(=O)OCc2c1cc1n(c2=O)Cc2cc3ccccc3nc2-1 [CAMPTOTHECIN] | Not Active | Not Active | Not Active | Not Active | Not Active | Not Active | Not Active | Not Active | Not Active | Not Active | – |
| CISPLATIN | – | Not Active | Not Active | Not Active | Not Active | Not Active | Not Active | Not Active | Not Active | Not Active | IC50 ([1]; read-out: IC50): 18.1 µM; Ki ([1]; read-out: Ki): 7.01 µM; Ki (Cathepsin G): Not Active; Ki [2]: Not Active; Ki (D(3) dopamine receptor): Not Active; Ki (D(4) dopamine receptor): Not Active; Ki (Caspase-1): Not Active; Ki [4]: Not Active; Ki (Acetylcholinesterase; hek293): Not Active |
